Experiments:
[1] = tested on: MIA PaCa-2; assay: Preferential cytotoxicity against human MIA PaCa-2 cells in DMEM measured after 24 hrs by WST-8 cell counting analysis; format: functional, cell-based; conditions: MIA PaCa-2, 24 h
[2] = Selectivity index, ratio of IC50 for preferential cytotoxicity against human PANC-1 cells in DMEM to PC50 for preferential cytotoxicity against human PANC-1 cells in nutrient-deprived medium; format: functional
[3] = tested on: PANC-1; assay: Preferential cytotoxicity against human PANC-1 cells in nutrient-deprived medium measured after 24 hrs by WST-8 cell counting analysis; format: functional
[4] = tested on: MIA PaCa-2; assay: Preferential cytotoxicity against human MIA PaCa-2 cells in nutrient-deprived medium measured after 24 hrs by WST-8 cell counting analysis; format: functional
[5] = Selectivity index, ratio of IC50 for preferential cytotoxicity against human MIA PaCa-2 cells in DMEM to PC50 for preferential cytotoxicity against human MIA PaCa-2 cells in nutrient-deprived medium; format: functional
[6] = tested on: PANC-1; assay: Preferential cytotoxicity against human PANC-1 cells in DMEM measured after 24 hrs by WST-8 cell counting analysis; format: functional, cell-based; conditions: PANC-1, 24 h

Row | SMILES | IC50 [1] [µM] | Selectivity Index [2] | PC50 [3] [µM] | PC50 [4] [µM] | Selectivity Index [5] | IC50 [6] [µM]
1 | CC(C)=CCCC1=CC[C@H](C(=O)c2c(O)cccc2O)[C@@H](c2ccc(F)cc2F)C1 (relative stereo) | 11.1 | 26.1 | 0.27 | 0.34 | 32.6 | 7.18
2 | CC(C)=CCCC1=CC[C@H](C(=O)c2c(O)cccc2O)[C@@H](c2cccc(Cl)c2)C1 (relative stereo) | 29.1 | 17.4 | 0.85 | 1.09 | 26.8 | 14.8
3 | COc1cc(O)c(C(=O)[C@H]2CC=C(CCC=C(C)C)C[C@@H]2c2ccc(F)c(F)c2)c(O)c1 (relative stereo) | 27.1 | 28.5 | 0.54 | 0.69 | 39.3 | 15.5
4 | COc1cc(O)c(C(=O)[C@H]2CC=C(CCC=C(C)C)C[C@@H]2c2cc(F)ccc2F)c(O)c1 (relative stereo) | 26.6 | 34.4 | 0.5 | 0.81 | 32.7 | 17.1
5 | CC(C)=CCCC1=CC[C@H](C(=O)c2c(O)cccc2O)[C@@H](c2ccccc2F)C1 (relative stereo) | 25 | 29.5 | 0.47 | 0.84 | 29.6 | 13.8
6 | COc1cc(O)c(C(=O)[C@H]2CC=C(CCC=C(C)C)C[C@@H]2c2c(F)cccc2F)c(O)c1 (relative stereo) | 26.3 | 13 | 1.49 | 1.54 | 17 | 19.4
7 | CC(C)=CCCC1=CC[C@H](C(=O)c2c(O)cccc2O)[C@@H](c2cc(F)ccc2F)C1 (relative stereo) | 20.8 | 21.1 | 0.53 | 0.77 | 26.9 | 11.2
8 | COc1cc(O)c(C(=O)[C@H]2CC=C(CCC=C(C)C)C[C@@H]2c2ccc(Cl)cc2)c(O)c1 (relative stereo) | 71.9 | 94.5 | 0.41 | 3.02 | 23.8 | 39.1
9 | COc1cccc(OC)c1C(=O)[C@H]1CC=C(CCC=C(C)C)C[C@@H]1c1ccccc1 (relative stereo) | > 100 | 24.1 | 1.66 | 13.6 |  | 40
10 | CC(C)=CCCC1=CC[C@H](C(=O)c2c(O)cccc2O)[C@@H](c2ccc(Cl)cc2)C1 (relative stereo) | 32.6 | 126.8 | 0.68 | 1.3 | 25 | 86
11 | CC(C)=CCCC1=CC[C@H](C(=O)c2c(O)cccc2O)[C@@H](c2ccc(Cl)cc2Cl)C1 (relative stereo) | 22.2 | 23.5 | 0.43 | 0.78 | 28.6 | 10
12 | COc1ccc([C@H]2CC(CCC=C(C)C)=CC[C@@H]2C(=O)c2c(O)cc(OC)cc2O)cc1 (relative stereo) | 102 | 110 | 0.45 | 1.93 | 52.9 | 50
13 | CC(C)=CCCC1=CC[C@H](C(=O)c2c(O)cccc2O)[C@@H](c2cc(F)cc(F)c2)C1 (relative stereo) | 19.7 | 31.6 | 0.33 | 0.75 | 26.2 | 10.5
14 | CC(C)=CCCC1=CC[C@H](C(=O)c2c(O)cccc2O)[C@@H](c2cccc(Cl)c2Cl)C1 (relative stereo) | 20.3 | 23.5 | 0.45 | 0.62 | 32.9 | 10.5
15 | CC(C)=CCCC1=CC[C@H](C(=O)c2c(O)cccc2O)[C@@H](c2ccc(F)cc2)C1 (relative stereo) | 34.4 |  | 0.37 | 0.89 | 38.6 | > 100
16 | CC(C)=CCCC1=CC[C@H](C(=O)c2c(O)cccc2O)[C@@H](c2ccccc2)C1 (relative stereo) | 58.2 | 117 | 0.4 | 1.79 | 32.5 | 47.2
